Experiments:
[1] = tested on: Tbet (T-box transcription factor); experiment: Expression of psoriasis-related transcription factor Tbet in induced inflammatory condition; type: cell-based, human; details: IL-17A/TNFα- or IL-17A/IFNγ-induced inflammatory condition
Description: [The source words this procedure for another target and says it was used here with some conditions changed.] (§1) A psoriasis-related genes were selected from the cDNA array result in which Compound 8 of the present invention was treated in HaCaT cells. In order to analyze whether Compound 8 has an effect on psoriasis alleviation, RT-PCR analysis for IL-36′ (interleukin 36 gamma), KLK7 (Kallikrein-related peptidase 7), OASL (2′-5′-Oligoadenylate Synthetase Like) and ALOX12B (Arachidonate 12-lipoxygenase, 12R type) which are very closely related to psoriasis was carried out. Further, KRT16 (Keratin 16), KRT6 (Keratin 6) and KRT1 (Keratin 1), known as psoriasis-related proliferation, differentiation markers were confirmed by a western blot analysis. As the specific experimental method, HEKa cells (Human Epidermal keratinocytes, adult), human-derived epidermal keratinocytes were seeded on a 24 well plate at a density of 1×10^5 cells, and cultured in an EpiLife medium (1× Human keratinocyte Growth supplement, 1× antibiotics) in an incubator under 37° C. and 5% CO2 for 24 hours. […]

[2] = tested on: psoriasis animal model induced by imiquimod 5% cream; experiment: Psoriasis animal model, transepidermal water loss (TEWL); type: in vivo, BALB/c mice; details: increased by 5% imiquimod; applied for 5 days, 0.5% in ethanol or 0.5% cream; FIG. 17
Description: (§2) In order to confirm the psoriasis treatment effect by Compound 8 of the present invention, dorsal hair of 8-week-old BALB/c mice (female) was removed using hair removal cream (Veet®, Oxy Reckitt Benckiser, Cedex, France), and subsequently imiquimod 5% cream (Aldara®; 3M Pharmaceuticals, UK; 62.5 mg) was applied on the back and both ears of the mice twice in the morning and in the afternoon (Sensitization; Day 0). Then, after a barrier recovery period of 2 days, imiquimod 5% cream (62.5 mg/day) was applied repeatedly for 7 days (Induction stage; Day 2 -Day 8), thereby inducing the psoriasis animal model.
After inducing the psoriasis animal model, Compound 8 of the present invention dissolved in ethanol (0.5%) and cream containing Compound 8 of the present invention (The same composition as that of the cosmetic composition of Example 14 except that it contained 0.5% by weight of Compound 8) were applied on the back once in the morning for 5 days (Treatment Stage; Day 8-Day 12). An untreated control group and a disease control group (vehicle) were treated with cream not containing Compound 8 of the present invention (cosmetic composition of Comparative Example 2) and ethanol, and during the treatment period, imiquimod 5% cream was applied thereon every other day, thereby maintaining psoriasis. […]

[3] = tested on: ULK-1 (Serine/threonine-protein kinase-1); experiment: Western blot for ULK-1 protein; type: cell-based, human; details: HaCaT cells; 20 uM dilution, 1 ml added to 1 ml medium; FIG. 1
Description: (§3) In order to analyze which gene expression is related to increased autophagy activation by Compound 8 of the present invention, a western blot analysis for Beclin-1 and ULK-1 (Serine/threonine-protein kinase-1) proteins which are closely related to autophagy activation was performed.
(§4) As a specific experimental method, HaCaT cells, human-derived keratinocytes were seeded on a 60Ø dish at a density of 3×10^5 cells, and cultured in DMEM (Dulbecco's Modified Eagle Media, Gibco BRL) in an incubator under 37° C. and 5% CO2 for 24 hours. Compound 8 of the present invention was dissolved in DMSO at a concentration of 10 mM each to be a concentrate, and diluted with a medium to be at a concentration of 20 uM. Then in a state where 1 ml of medium was first in each well, 1 ml of each diluted solution was added thereto for treatment, and cultured for a certain period, and after completing the culturing, the medium was removed, and then cells were disrupted with a SDS sample buffer, and each protein was separated by SDS-PAGE gel electrophoresis, and transferred to a PVDF membrane. […]

[4] = tested on: IL-20 (interleukin-20); experiment: Cytokine gene expression, IL-20, TNFα/IFN-γ induced inflammatory condition; type: cell-based, human; details: FIG. 8
[5] = tested on: Beclin-1; experiment: Western blot for Beclin-1 protein; type: cell-based, human; details: HaCaT cells; 20 uM dilution, 1 ml added to 1 ml medium; FIG. 1
Description: as §3, §4

[6] = tested on: CXCL2 (Chemokine (C-X-C motif) ligand 2); experiment: Cytokine gene expression, CXCL2, TNFα/IFN-γ induced inflammatory condition; type: cell-based, human; details: FIG. 8
[7] = Psoriasis animal model, weight change; type: in vivo, BALB/c mice; details: topical treatment, FIG. 16
Description: as §2
After inducing the psoriasis animal model, Compound 8 of the present invention dissolved in ethanol (0.5%) and cream containing Compound 8 of the present invention (The same composition as that of the cosmetic composition of Example 14 except that it contained 0.5% by weight of Compound 8) were applied on the back once in the morning for 5 days (Treatment Stage; Day 8-Day 12). An untreated control group and a disease control group (vehicle) were treated with cream not containing Compound 8 of the present invention (cosmetic composition of Comparative Example 2) and ethanol, and during the treatment period, imiquimod 5% cream was applied thereon every other day, thereby maintaining psoriasis.

[8] = tested on: IL-36γ (interleukin 36, gamma); experiment: Cytokine gene expression, IL-36γ, IL-17A/TNF-α condition; type: cell-based, human; details: FIG. 9
[9] = tested on: Foxp3 (forkhead box P3); experiment: Expression of psoriasis-related transcription factor Foxp3 in induced inflammatory condition; type: cell-based, human; details: IL-17A/TNFα- or IL-17A/IFNγ-induced inflammatory condition
Description: [The source words this procedure for another target and says it was used here with some conditions changed.] as §1

CCCCCCCCCCCCCCCC(=O)NCCCC[C@H](NC(=O)[C@H](CCCCN(CC(=O)O)CC(=O)O)N(CC(=O)O)CC(=O)O)C(=O)O [Compound 8]
expression level of Tbet [1]: reduced | TEWL value [2]: remarkably reduced | expression of ULK-1 protein [3]: significantly increased | expression level of IL-20 [4]: reduced | expression of Beclin-1 protein [5]: significantly increased | expression level of CXCL2 [6]: reduced | weight change after treatment [7]: almost similar to those of the control group | expression level of IL-36γ [8]: reduced | expression level of Foxp3 [9]: reduced
